Tests used:
[1] = Drug toxicity control in uninfected mice; type: in vivo
Description: (§1) Compound UMJD 183 and the drug ganciclovir (DHPG) were administered to groups of 15 mice each at doses and times of administration shown in Table 3. Each compound at all doses was administered intraperitoneally twice daily for five days beginning at either 6, 24 or 48 hours after virus inoculation. Animals were observed daily and the number dying each day recorded.
Even when the compound was administered 48 hours after virus infection, compound UMJD 183 reduced mortality from 80-93% in controls to 40% in the presence of 5.6 mg/kg of the drug. When UMJD 183 was administered sooner, 6 or 24 hours after virus infection, mortality was reduced further to 7 or 20%, respectively.
^d Drug toxicity control. No virus administered.

KB cells = assay: Growth of KB cells (population doubling); type: cell-based, human
Description: (§2) Population doubling times and cell viability were measured in uninfected HFF and/or KB cells. Cells were planted in replicate 6-well plastic tissue culture dishes or in 25 cm^2 flasks as described above in part 1. Following an incubation period during which cells attached to the substrate, medium was decanted, the cell sheet rinsed once with HBS, and fresh medium added. The medium consisted of MEM(E) with 1.1 gm NaHCO3 /liter and 10% fetal bovine or calf serum plus appropriate log or half-log concentrations of drug. After additional periods of incubation from 1 to 72 hours at 37° C., cells were harvested by means of 0.05% trypsin plus 0.02% EDTA in a HEPES-buffered salt solution. Cells were enumerated using either a Coulter counter or a hemocytometer and viability determining using […] dye exclusion.
In more extensive cytotoxicity testing, the halogenated compounds were tested for effects on the growth of KB cells. Populations doubling times were calculated from the logarithmic portions of growth curves and were as follows: […]

MCMV = assay: Mortality of mice infected with murine cytomegalovirus; type: in vivo
Description: Compound UMJD 183 was tested in mice infected with murine cytomegalovirus (MCMV). This animal model has been recognized as having capabilities predictive of efficacy in humans.
as §1
^a Animlas were treated i.p. twice daily for 5 days with the doses
stated above. Treatment was initiated at the times indicated following

HCMV [2] = assay: HCMV titer (yield) reduction assay in HFF cells; type: cell-based, human cytomegalovirus (Towne strain); settings: for HCMV titer reduction activity: in words, FIG. 2 or FIG. 3; for HCMV titer reduction, fold better than acyclovir: FIG. 1
From the text: (§3) The 148 strain of HSV-1 was used in most experiments and was provided by Dr. T. W. Schafer of Schering Corporation. The HF strain of HSV-1 was used in selected experiments and was obtained from Dr. G. H. Cohen, University of Pennsylvania. The Towne strain, plaque-purified isolate Po, of HCMV was a gift of Dr. Mark Stinski, University of Iowa.
(§4) HCMV was titered in 24-well cluster dishes which were planted to contain 5×10^4 HFF cells/well, grown as described above. When the cells were 70 to 80% confluent, 0.2 ml of the virus suspension was added per wall and adsorbed as described above. At least three ten-fold dilutions of each preparation were used. Following virus adsorption, the cell sheets were overlayed with 0.5% methocel (4000 CPS) in maintenance medium [(MEM) with 1.1 gm/liter NaHCO3, 100 units/ml penicillin G, 100 μg/ml streptomycin, and 5% fetal bovine serum]. The cultures were incubated in a humidified atmosphere of 4% CO2 -96% air. Viral foci were visible 5 to 7 days after infection using at least 10-fold magnification. Cells were fixed and stained by a 10-minute exposure to a 0.1% solution of crystal violet in 20% methanol 7 to 12 days after infection. Microscopic foci were enumerated at 20-fold magnification using a Nikon Profile Projector.
For titer reduction assays, HFF cells were planted as described above in 24-well cluster dishes or in 25 cm^2 flasks. When monolayers were approximately 70% confluent, HCMV was added at a m.o.i. of 0.5 p.f.u. per cell and adsorbed as detailed above. Compounds dissolved in growth medium were added in one or one-half logarithm 10 dilutions and incubation continued at 37° C. After 7 to 10 days of incubation, culture dishes or flasks were frozen at […] For titer determination, cells were thawed and then subjected to two more cycles of freezing and thawing at 37° C. Serial, one-logarithm10 dilutions of the final suspension were prepared and inoculated onto new cultures of HFF cells. Titer determination was as detailed above in part (1) (b).
(§5) Dose-response relationships were used to compare drug effects. These were constructed by linearly regressing the percent inhibition of parameters derived in the preceding sections against log drug concentrations. The 50% inhibitory (I50) concentrations were calculated from the regression lines using the methods described by Goldstein. See Goldstein, A., Biostatistics: An Introductory Text, MacMillan, N.Y., 1964, pp. 156-161. Along with the I50 concentration for visual cytotoxicity, the averaged I50 concentrations are compared to I50 concentrations for inhibition for HCMV or HSV-1 replication. Compounds for which the ratio of cytotoxicity I50 concentrations to antiviral I50 concentrations (in vitro therapeutic index) were greater than 10, were considered for further study.

HCMV [3] = assay: HCMV plaque (focus) reduction assay in HFF cells; type: cell-based, human cytomegalovirus (Towne strain); settings: in words
Description: as §3
Stock HCMV was prepared by infecting HFF cells at a multiplicity of infection (m.o.i.) of less than 0.01 plaque-forming units (p.f.u.) per cell. Cell growth medium was changed every four days until cytopathology was evident in all cells (approximately 21 days). Supernatant fluids were retained as the virus stock. Four days later, the remaining cells were disrupted by three cycles of freeze-thawing and the cell plus medium held as an additional source of virus. Storage was in liquid nitrogen.
as §4
The effect of compounds of the replication of HCMV has been measured using both a plaque (focus) reduction assay and a titer (yield) reduction assay. For the former, HFF cells in 24-well culture dishes were infected with approximately 50 p.f.u. of HCMV per well using the procedures detailed above. Compounds dissolved in growth medium were added in three to six selected concentrations to triplicate wells following virus adsorption. Following incubation at 37° C. for 7 to 10 days, cell sheets were fixed, stained and microscopic foci were enumerated as described above. Drug effects were calculated as a percentage of reduction in number of foci in the presence of each drug concentration compared to the number observed in the absence of drug. DHPG (ganciclovir) was used as a positive control in all experiments.
as §5

HFF cells = assay: Growth of human diploid fibroblasts (HFF cells); type: cell-based; settings: for population doubling of HFF cells: 100 μM, control cells underwent two doublings
Description: as §2
The effect of these compounds on the growth of human diploid fibroblasts (HFF cells) was less pronounced. During a 70-hour incubation, control cells underwent two doublings. […] A 100 μM concentration reduced the number of cells by less than 10%.

[4] = Visual cytotoxicity in BSC-1 cells; type: cell-based, African green monkey; settings: monkey, visual cytotoxicity at time of HSV-1 plaque enumeration, read-out: 50% Inhibitory Concentration, Cytotoxicity BSC
From the text: Cytotoxicity produced in HFF and BSC-1 cells was estimated by visual scoring of cells not affected by virus infection in the HCMV and HSV-1 plaque reduction assays. Cytopathology was estimated at 35- and 60-fold magnification and scored on a zero to four plus basis. Wells were scored on the day of staining.

[5] = previously reported; cited from earlier work
[6] = 1.9 mg/kg i.p. twice daily, from 6 h
[7] = 1.9 mg/kg i.p. twice daily, from 24 h
[8] = 1.9 mg/kg i.p. twice daily, from 48 h
[9] = 5.6 mg/kg i.p. twice daily, from 6 h
[10] = 5.6 mg/kg i.p. twice daily, from 24 h
[11] = 5.6 mg/kg i.p. twice daily, from 48 h
[12] = 16.7 mg/kg i.p. twice daily, from 6 h
[13] = 16.7 mg/kg i.p. twice daily, from 24 h
[14] = 16.7 mg/kg i.p. twice daily, from 48 h
[15] = 50 mg/kg i.p. twice daily, from 6 h
[16] = 50 mg/kg i.p. twice daily, from 24 h
[17] = 50 mg/kg i.p. twice daily, from 48 h

Compound: Nc1ncnc2c1c(Br)cn2COC(CO)CO [UMJD 183, 4-amino-5-bromo-7-[(1,3-dihydroxy-2-propoxy)methyl]-pyrrolo[2,3-d]pyrimidine]
- MDD (Mean Day of Death), Toxicity ([1]; 16.7 mg/kg, no virus): 5.0
- deaths in uninfected animals ([1]; all doses together, i.p.): 1 death in 60 animals
- toxicity in uninfected animals ([1]; in words, i.p.): virtually no toxicity
- time of KB cell growth in the presence of the drug before slowing or stopping (KB cells; KB cells): up to 20 hours
- effect on growth of KB cells (KB cells; in words): growth of KB cells also was inhibited, but to a lesser extent
- growth in the presence of up to 32 μM drug (KB cells; up to 32 μM, 50 hours): at a reduced rate
- MDD (Mean Day of Death) (MCMV; [6]): 6.2
- Mortality Percent (MCMV; [6]): 33%
- MDD (Mean Day of Death) (MCMV; [7]): 4.8
- Mortality Percent (MCMV; [7]): 60%
- MDD (Mean Day of Death) (MCMV; [8]): 4.8
- Mortality Percent (MCMV; [8]): 67%
- MDD (Mean Day of Death) (MCMV; [9]): 8.0
- Mortality Percent (MCMV; [9]): 7%
- MDD (Mean Day of Death) (MCMV; [10]): 6.3
- Mortality Percent (MCMV; [10]): 20%
- MDD (Mean Day of Death) (MCMV; [11]): 5.5
- Mortality Percent (MCMV; [11]): 40%
- increase in number of animals surviving (MCMV; 5.6 mg/kg i.p., in words): highly significant increases in the number of animals surviving the virus infection
- MDD (Mean Day of Death) (MCMV; [12]): 8.7
- Mortality Percent (MCMV; [12]): 60%
- MDD (Mean Day of Death) (MCMV; [13]): 7.1
- Mortality Percent (MCMV; [13]): 80%
- MDD (Mean Day of Death) (MCMV; [14]): 8.4
- Mortality Percent (MCMV; [14]): 87%
- MDD (Mean Day of Death) (MCMV; [15]): 10.8
- Mortality Percent (MCMV; [15]): 60%
- MDD (Mean Day of Death) (MCMV; [16]): 8.8
- Mortality Percent (MCMV; [16]): 93%
- MDD (Mean Day of Death) (MCMV; [17]): 7.5
- Mortality Percent (MCMV; [17]): 97%
- effect on life span (mean day of death) (MCMV; all doses, i.p.): prolonged life span (increased the mean day of death) at all doses
- HCMV titer reduction activity (HCMV [2]): most active

Compound: OCC(CO)OCn1cc(Cl)c2c(NO)ncnc21 [UMJD 328, 4-hydroxylamino-5-chloro-7-[(1,3-dihydroxy-2-propoxy)methyl]pyrrolo[2,3-d]pyrimidine]
- HCMV titer reduction activity (HCMV [2]): active and nearly as potent as the 4-amino analogs

Compound: Nc1ncnc2c1c(Br)cn2COCCO [UMJD 102, 4Amino-5-bromo-7-(2-hydroxyethoxymethyl)pyrrolo[2,3-d]-pyrimidine]
- activity against HCMV (HCMV [3]): active against HCMV
- population doubling of HFF cells (HFF cells; 70 hours): one population doubling
- effect on growth of HFF cells (HFF cells; in words): more pronounced
- cytostatic effect (KB cells; in words): cytostatic
- HCMV titer reduction, fold better than acyclovir (HCMV [2]): approximately 10 fold

Compound: Nc1ncnc2c1c(Cl)cn2COCCO [UMJD 100, 4-Amino-5-chloro-7-(2-hydroxyethoxymethyl)pyrrolo[2,3-d]-pyrimidine]
- activity against HCMV (HCMV [3]): active against HCMV
- decrease in number of HFF cells (HFF cells; 10 or 32 μM, 70 hours, in words): no decrease in the number of cells
- effect on KB cell growth (KB cells; 100 μM, in words): affected KB cell growth to only a minor extent

Compound: Nc1nc2c(ncn2COCCO)c(=O)[nH]1 [Acyclovir, reference compound]
- activity against HCMV (HCMV [3]): only modest activity against HCMV
- CC50 [4]: > 100 µM

Compound: Nc1ncnc2c1ccn2[C@@H]1O[C@H](CO)[C@@H](O)[C@H]1O [tubercidin]
- broad spectrum antiviral activity [5]: Broad spectrum antiviral activity

Compound: Nc1ncnc2c1c(I)cn2COCCO [UMJD 104, 4-Amino-5-iodo-7-(2-hydroxyethoxymethyl)pyrrolo[2,3-d]-pyrimidine]
- activity against HCMV (HCMV [3]): active against HCMV
- population doubling of HFF cells (HFF cells; 70 hours): one population doubling
- effect on growth of HFF cells (HFF cells; in words): more pronounced
- HCMV titer reduction, fold better than acyclovir (HCMV [2]): approximately 10 fold

Compound: OCC(CO)OCn1cc(I)c2c(NO)ncnc21 [UMJD 329, 4-hydroxylamino-5-iodo-7-[(1,3-dihydroxy-2-propoxy)methyl]pyrrolo[2,3-d]pyrimidine]
- HCMV titer reduction activity (HCMV [2]): active and nearly as potent as the 4-amino analogs

Compound: N#Cc1cn([C@@H]2O[C@H](CO)[C@@H](O)[C@H]2O)c2ncnc(N)c12 [toyocamycin]
- broad spectrum antiviral activity [5]: Broad spectrum antiviral activity

Compound: OCC(CO)OCn1cc(Br)c2c(NO)ncnc21 [UMJD 299, 4-hydroxylamino-5-bromo-7-[(1,3-dihydroxy-2-propoxy)methyl]pyrrolo[2,3-d]pyrimidine]
- HCMV titer reduction activity (HCMV [2]): active and nearly as potent as the 4-amino analogs

Compound: NC(=S)c1cn(COCCO)c2ncnc(N)c12 [UMJD 229, 4-Amino-7-(2-hydroxyethoxymethyl)pyrrolo[2,3-d]pyrimidine-5-thiocarboxamide]
- activity against HCMV (HCMV [3]): active against HCMV

Compound: NC(=O)c1cn([C@@H]2O[C@H](CO)[C@@H](O)[C@H]2O)c2ncnc(N)c12 [sangivamycin]
- broad spectrum antiviral activity [5]: Broad spectrum antiviral activity

Source: USRE36187E, “Acyclic pyrrolo [2,3-d]pyrimidine analogs as antiviral agents” (The Regents of the University of Michigan, priority 1994, dated 1999)
